Laboratory results: US12509446B2, “FYN and VEGFR2 kinase inhibitors” (ROTTAPHARM BIOTECH S.R.L., priority 2019, dated 2025)
Read-outs that look alike come from different tables or passages of the source.

Legend:
[1] = target: VEGFR2 (Homo sapiens (Human), UniProt P35968); experiment: In vitro VEGFR2 kinase activity assay (Eurofins Cerep); assay type: biochemical; conditions: read-out: VEGFR2 KINASE INHIBITION IC50
Description: The VEGFR2 kinase inhibitory activity of representative examples of compounds of Formula (I) assays was evaluated in Eurofins Cerep (France). The concentration range of the inhibitors under investigation was from 10^−8 M up to 10^−5 M final concentration. Some compounds were re-tested in a concentration-range starting from 10^−9 M. The results are expressed as a percent of control activity (in the absence of test compound) and the IC50 values were determined by non-linear regression analysis of the inhibition/concentration curves generated with mean replicate values.

[2] = tested on: NF-kB; experiment: Gene reporter (GR) assay, NF-kB activation after TNFα in JB6 Cl 41-5a (P+) cells; assay type: cell-based, murine; set-up: key to Gene reporter (GR) inhibition, no effect: ne: no effect; conditions: for inhibition at 10 µM / inhibition at 3 µM: read-out: Gene reporter (GR) inhibition % effect at max concentration; for IC50: TNFα 2 ng/ml, non toxic concentrations, read-out: Gene reporter (GR) inhibition IC50
Source text: To determine if the compounds of the invention were active also in a cellular model, a gene reporter assay was established in a cell line (JB6 Cl 41-5a (P+)) know to activate Fyn kinase via an inflammatory stimuli (TNFα). GR assay measures the activation of the nuclear transcription factor NF-kB, situated down-stream the Fyn activation pathway. Products active in this analysis has to penetrate in the cell and inhibit the activation pathway of NF-kB.
The murine epithelial cell line JB6 Cl 41-5a (P+) (ATCC® Cat. #CRL-2010) was stably transfected with the pGL4.32[luc2P/NFkB-RE/Hygro] vector (Promega). Clonal selection was achieved by limiting with 80 μg/ml Hygromycin B. The clones were tested for their response to TNFα stimulus.
JB6(P+) NFkB-RE-luc2P transfected cells were used for the analysis of NF-kB activity modulation, after TNFα stimulation, by Fyn-inhibitors.
Cells were pre-treated with the different compounds for 1 h and then stimulated with 2 ng/ml TNFα for 4 h. Each tested condition was analyzed in quadruplicate.
The luciferase analysis was performed with ONE-Glo™+ToxLuciferase Reporter and Cell Viability Assay kit (Promega).

[3] = target: Fyn (Homo sapiens (Human), UniProt P06241); experiment: Z′-LYTE in vitro Fyn kinase activity assay; assay type: biochemical; conditions: ATP 50 μM; read-out: FYN KINASE INHIBITION IC50
Sequence of Fyn (P06241 whole entry): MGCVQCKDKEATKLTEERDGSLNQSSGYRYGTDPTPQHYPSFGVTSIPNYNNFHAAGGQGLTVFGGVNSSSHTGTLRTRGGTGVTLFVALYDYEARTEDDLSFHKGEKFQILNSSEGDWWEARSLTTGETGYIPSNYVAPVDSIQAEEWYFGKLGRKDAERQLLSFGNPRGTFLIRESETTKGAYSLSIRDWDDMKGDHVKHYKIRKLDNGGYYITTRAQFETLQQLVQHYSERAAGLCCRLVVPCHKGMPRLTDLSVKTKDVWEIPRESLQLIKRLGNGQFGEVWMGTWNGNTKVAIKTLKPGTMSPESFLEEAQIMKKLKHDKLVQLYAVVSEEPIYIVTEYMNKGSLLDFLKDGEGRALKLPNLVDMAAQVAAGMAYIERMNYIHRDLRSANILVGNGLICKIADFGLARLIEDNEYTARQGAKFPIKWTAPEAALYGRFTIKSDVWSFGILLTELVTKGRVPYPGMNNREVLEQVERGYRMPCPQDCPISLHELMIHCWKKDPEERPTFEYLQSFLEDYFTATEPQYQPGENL
Description: The Fyn kinase inhibitory activity of representative examples of compounds of Formula (1) was evaluated by Z′-LYTE™ Kinase Assay Platform (Invitrogen). Compounds were evaluated towards active Fyn (full length active, molecular weight 87.1 kDa; Invitrogen). […] Samples representing the 0% inhibition (or total enzymatic activity) were in the presence of compound diluent (1% DMSO final in Reaction Buffer 50 mMHepes, 10 mM MgCl2, 1 mM EGTA, 0.01% Brij-35, pH 7.5). The kinase reaction was carried out in a total volume of 10 μl, for 60 minutes at 25° C. The 0% Phosphorylation (i.e. no ATP) and 100% Phosphorylation Assay Controls, included in each plate, allowed to calculate the percent phosphorylation achieved in the specific reaction well. Results are expressed as percentage of inhibition and the IC50 values were calculated by non-linear curve fitting using GraphPad™ Prism software (version 6 for Windows).

Sequence of VEGFR2 (P35968 20-1356): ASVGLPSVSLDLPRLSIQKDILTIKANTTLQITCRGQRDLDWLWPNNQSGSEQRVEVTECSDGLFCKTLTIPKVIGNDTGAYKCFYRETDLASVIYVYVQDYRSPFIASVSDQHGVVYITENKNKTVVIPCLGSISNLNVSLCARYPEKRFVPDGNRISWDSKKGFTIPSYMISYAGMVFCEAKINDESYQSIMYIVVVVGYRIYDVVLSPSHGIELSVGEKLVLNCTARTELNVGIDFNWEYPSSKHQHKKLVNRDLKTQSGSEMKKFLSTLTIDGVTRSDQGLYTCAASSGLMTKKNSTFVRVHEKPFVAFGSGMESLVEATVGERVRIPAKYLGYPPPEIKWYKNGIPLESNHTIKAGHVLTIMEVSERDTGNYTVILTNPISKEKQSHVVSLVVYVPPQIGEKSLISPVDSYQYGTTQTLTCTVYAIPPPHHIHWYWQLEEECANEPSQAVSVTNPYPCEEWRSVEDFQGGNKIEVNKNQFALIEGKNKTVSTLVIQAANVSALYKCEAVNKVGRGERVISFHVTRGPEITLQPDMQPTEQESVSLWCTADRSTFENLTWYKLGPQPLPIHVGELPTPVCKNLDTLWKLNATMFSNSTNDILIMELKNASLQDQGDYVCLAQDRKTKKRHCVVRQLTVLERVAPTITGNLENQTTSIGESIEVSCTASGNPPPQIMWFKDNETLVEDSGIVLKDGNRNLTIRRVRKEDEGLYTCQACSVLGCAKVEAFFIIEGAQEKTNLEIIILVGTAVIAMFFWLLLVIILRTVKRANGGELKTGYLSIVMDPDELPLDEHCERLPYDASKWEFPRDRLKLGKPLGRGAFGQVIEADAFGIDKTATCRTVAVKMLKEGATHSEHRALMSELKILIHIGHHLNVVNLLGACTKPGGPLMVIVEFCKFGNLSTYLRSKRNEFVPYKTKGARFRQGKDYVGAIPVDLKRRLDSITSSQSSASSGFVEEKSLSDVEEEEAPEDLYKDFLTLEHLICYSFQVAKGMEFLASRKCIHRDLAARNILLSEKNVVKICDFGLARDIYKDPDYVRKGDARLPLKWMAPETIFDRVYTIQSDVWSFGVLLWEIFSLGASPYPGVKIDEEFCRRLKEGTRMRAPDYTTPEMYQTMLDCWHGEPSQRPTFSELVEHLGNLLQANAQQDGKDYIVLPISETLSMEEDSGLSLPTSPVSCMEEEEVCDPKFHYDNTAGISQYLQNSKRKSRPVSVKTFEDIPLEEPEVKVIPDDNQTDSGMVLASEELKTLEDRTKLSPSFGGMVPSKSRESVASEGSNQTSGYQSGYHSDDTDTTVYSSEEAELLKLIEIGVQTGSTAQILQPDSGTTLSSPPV

Compound | IC50 [1] [nM] | IC50 [3] [nM] | IC50 ([2]; Mus musculus, JB6 Cl 41-5a) [nM] | further results
CC(C)Cc1ccc(C(=O)Nc2ccc(F)c(CCc3cc(NC(=O)c4ncccn4)[nH]n3)c2)cn1 [Compound 9, N-(3-(2-fluoro-5-(6-isobutylnicotinamido)phenethyl)-1H-pyrazol-5-yl)pyrimidine-2-carboxamide] | < 10 | 16 | – | inhibition at 10 µM ([2]; Mus musculus, JB6 Cl 41-5a): 47%
O=C(Nc1ccc(F)c(CCc2cc(Nc3cc4c(cn3)CN(CCO)C4)[nH]n2)c1)c1cccc(C(F)(F)F)c1 [Compound 10, N-(4-fluoro-3-(2-(5-((2-(2-hydroxyethyl)-2,3-dihydro-1H-pyrrolo[3,4-c]pyridin-6-yl)amino)-1H-pyrazol-3-yl)ethyl)phenyl)-3-(trifluoromethyl) benzamide] | < 10 | 4 | 2000 | –
O=C(Nc1ccc(Cl)c(CCc2cc(Nc3cnccn3)[nH]n2)c1)c1cccc(C(F)(F)F)c1 [Compound 16, N-(4-chloro-3-(2-(5-(pyrazin-2-ylamino)-1H-pyrazol-3-yl)ethyl)phenyl)-3-(trifluoromethyl)benzamide] | < 10 | 24 | 321 | –
Cc1ccc(NC(=O)c2cccc(C(F)(F)F)c2)cc1CCc1cc(NC(=O)c2ccccn2)[nH]n1 [Compound 18, N-(5-(2-methyl-5-(3-(trifluoromethyl)benzamido)phenethyl)-1H-pyrazol-3-yl)picolinamide] | 16 | 15 | 974 | –
Cc1ccc(NC(=O)N2CCC3(CCC3)C2)cc1CCc1cc(Nc2nccnc2C)[nH]n1 [Compound 20, N-(4-methyl-3-(2-(5-((3-methylpyrazin-2-yl)amino)-1H-pyrazol-3-yl)ethyl)phenyl)-6-azaspiro[3.4]octane-6-carboxamide] | – | 18 | – | inhibition at 3 µM ([2]; Mus musculus, JB6 Cl 41-5a): 45%
CCC1(CC)CCN(C(=O)Nc2ccc(C)c(CCc3cc(Nc4nccnc4C)[nH]n3)c2)C1 [Compound 21, 3,3-diethyl-N-(4-methyl-3-(2-(5-((3-methylpyrazin-2-yl)amino)-1H-pyrazol-3-yl)ethyl)phenyl)pyrrolidine-1-carboxamide] | – | 5 | – | inhibition at 3 µM ([2]; Mus musculus, JB6 Cl 41-5a): 37%
CCC1(CC)CCN(C(=O)Nc2ccc(C)c(CCc3cc(Nc4cnccn4)[nH]n3)c2)C1 [Compound 22, 3,3-diethyl-N-(4-methyl-3-(2-(5-(pyrazin-2-ylamino)-1H-pyrazol-3-yl)ethyl)phenyl)pyrrolidine-1-carboxamide] | – | 7 | 1140 | –
Cc1ccc(NC(=O)NC2CCC(C)(C)CC2)cc1CCc1cc(NC(=O)c2ccc(C3CCN(C)CC3)cc2)[nH]n1 [Compound 25, N-(3-(5-(3-(4,4-dimethylcyclohexyl)ureido)-2-methylphenethyl)-1H-pyrazol-5-yl)-4-(1-methylpiperidin-4-yl)benzamide] | – | 3 | – | IC50 [2]: 1420 nM
Cc1nc(Nc2cc(CCc3cc(NC(=O)c4cccc(C(F)(F)F)c4)ccc3F)n[nH]2)cc(N2CCN(CCO)CC2)n1 [Compound 30, N-(4-fluoro-3-(2-(3-((6-(4-(2-hydroxyethyl)piperazin-1-yl)-2-methylpyrimidin-4-yl)amino)-1H-pyrazol-5-yl)ethyl)phenyl)-3-(trifluoromethyl) benzamide] | – | – | – | Gene reporter (GR) inhibition, no effect [2]: ne
Cc1nc(Nc2cc(CCc3cc(NC(=O)c4cccc(C(F)(F)F)c4)ccc3F)n[nH]2)cc(N2CC(O)C2)n1 [Compound 31, N-(4-fluoro-3-(2-(3-((6-(3-hydroxyazetidin-1-yl)-2-methylpyrimidin-4-yl)amino)-1H-pyrazol-5-yl)ethyl)phenyl)-3-(trifluoromethyl)benzamide] | – | – | – | inhibition at 10 µM ([2]; Mus musculus, JB6 Cl 41-5a): 47%

Further lines, with some results ahead:

IC50 [1] [nM] | IC50 [3] [nM] | Compound | IC50 ([2]; Mus musculus, JB6 Cl 41-5a) [nM] | further results
– | 5 | Cc1ccc(NC(=O)NC2CCC(C)(C)CC2)cc1CCc1cc(NC(=O)c2ccc(OC3CN(C(C)C)C3)cc2)[nH]n1 [Compound 23, N-(3-(5-(3-(4,4-dimethylcyclohexyl)ureido)-2-methylphenethyl)-1H-pyrazol-5-yl)-4-((1-isopropylazetidin-3-yl)oxy)benzamide] | 1440 | –
– | 2 | Cc1ccc(NC(=O)NC2CCCC2)cc1CCc1cc(NC(=O)c2ccc(N3CCN(C)CC3)cc2)[nH]n1 [Compound 24, N-(3-(5-(3-cyclopentylureido)-2-methylphenethyl)-1H-pyrazol-5-yl)-4-(4-methylpiperazin-1-yl)benzamide] | 2330 | –
< 10 | 12 | Cc1nc(CN2CCOCC2)cc(Nc2cc(CCc3cc(NC(=O)c4cccc(C(F)(F)F)c4)ccc3F)[nH]n2)n1 [Compound 26, N-(4-fluoro-3-(2-(3-((2-methyl-6-(morpholinomethyl)pyrimidin-4-yl)amino)-1H-pyrazol-5-yl)ethyl)phenyl)-3-(trifluoromethyl)benzamide] | – | inhibition at 3 µM ([2]; Mus musculus, JB6 Cl 41-5a): 50%
12 | 10 | Cc1nc(CN2C[C@@H](C)O[C@@H](C)C2)cc(Nc2cc(CCc3cc(NC(=O)c4cccc(C(F)(F)F)c4)ccc3F)[nH]n2)n1 [Compound 27, N-(3-(2-(3-((6-(((2S,6R)-2,6-dimethylmorpholino)methyl)-2-methylpyrimidin-4-yl)amino)-1H-pyrazol-5-yl)ethyl)-4-fluorophenyl)-3-(trifluoromethyl)benzamide] | – | –
< 10 | 17 | Cc1nc(CN2CCCC2)cc(Nc2cc(CCc3cc(NC(=O)c4cccc(C(F)(F)F)c4)ccc3F)[nH]n2)n1 [Compound 28, N-(4-fluoro-3-(2-(3-((2-methyl-6-(pyrrolidin-1-ylmethyl)pyrimidin-4-yl)amino)-1H-pyrazol-5-yl)ethyl)phenyl)-3-(trifluoromethyl)benzamide] | – | –
< 10 | 9 | Cc1nc(Nc2cc(CCc3cc(NC(=O)c4cccc(C(F)(F)F)c4)ccc3F)n[nH]2)cc(N2CC[C@H](N(C)C)C2)n1 [Compound 32, (S)-N-(3-(2-(3-((6-(3-(dimethylamino)pyrrolidin-1-yl)-2-methylpyrimidin-4-yl)amino)-1H-pyrazol-5-yl)ethyl)-4-fluorophenyl)-3-(trifluoromethyl)benzamide] | – | inhibition at 3 µM ([2]; Mus musculus, JB6 Cl 41-5a): 29%
< 10 | 32 | Cc1ccc(NC(=O)c2ccnc(C(C)(C)C#N)c2)cc1CCc1cc(Nc2ncccc2C)[nH]n1 [Compound 36, 2-(2-cyanopropan-2-yl)-N-(4-methyl-3-(2-(5-((3-methylpyridin-2-yl)amino)-1H-pyrazol-3-yl)ethyl)phenyl)isonicotinamide] | 494 | –
– | 2 | Cc1nc(C#N)cc(Nc2cc(CCc3cc(NC(=O)N4CCC5(CCCC5)CC4)ccc3C)n[nH]2)n1 [Compound 38, N-(3-(2-(5-((6-cyano-2-methylpyrimidin-4-yl)amino)-1H-pyrazol-3-yl)ethyl)-4-methylphenyl)-8-azaspiro [4.5] decane-8-carboxamide] | – | inhibition at 10 µM ([2]; Mus musculus, JB6 Cl 41-5a): 25%
< 10 | 8 | Cc1ccc(NC(=O)c2cc(C(C)(C)C#N)ccn2)cc1CCc1cc(Nc2cnccn2)[nH]n1 [Compound 41, 4-(2-cyanopropan-2-yl)-N-(4-methyl-3-(2-(5-(pyrazin-2-ylamino)-1H-pyrazol-3-yl)ethyl)phenyl)picolinamide] | 327 | –
20 | 13 | Cc1nc(Nc2cc(CCc3cc(NC(=O)c4cccc(C(F)(F)F)c4)ccc3F)[nH]n2)cc(-c2cnn(CCO)c2)n1 [Compound 42, N-(4-fluoro-3-(2-(3-((6-(1-(2-hydroxyethyl)-1H-pyrazol-4-yl)-2-methylpyrimidin-4-yl)amino)-1H-pyrazol-5-yl)ethyl)phenyl)-3-(trifluoromethyl)benzamide] | – | inhibition at 10 µM ([2]; Mus musculus, JB6 Cl 41-5a): 56%
– | 8 | Cc1ccc(NC(=O)c2ccnc(C(C)(C)C#N)c2)cc1CCc1cnc(Nc2cnccn2)s1 [Compound 50, 2-(2-cyanopropan-2-yl)-N-(4-methyl-3-(2-(2-(pyrazin-2-ylamino)thiazol-5-yl)ethyl)phenyl)isonicotinamide] | – | inhibition at 3 µM ([2]; Mus musculus, JB6 Cl 41-5a): 86%
